# Laboratory results reported in ChEMBL document CHEMBL5726799, “IRAK4 inhibiting agents” (2019).
# Biological target: T1, Interleukin-1 receptor-associated kinase 4 (Homo sapiens, UniProt Q9NWZ3)
# T1 sequence (Q9NWZ3 whole entry): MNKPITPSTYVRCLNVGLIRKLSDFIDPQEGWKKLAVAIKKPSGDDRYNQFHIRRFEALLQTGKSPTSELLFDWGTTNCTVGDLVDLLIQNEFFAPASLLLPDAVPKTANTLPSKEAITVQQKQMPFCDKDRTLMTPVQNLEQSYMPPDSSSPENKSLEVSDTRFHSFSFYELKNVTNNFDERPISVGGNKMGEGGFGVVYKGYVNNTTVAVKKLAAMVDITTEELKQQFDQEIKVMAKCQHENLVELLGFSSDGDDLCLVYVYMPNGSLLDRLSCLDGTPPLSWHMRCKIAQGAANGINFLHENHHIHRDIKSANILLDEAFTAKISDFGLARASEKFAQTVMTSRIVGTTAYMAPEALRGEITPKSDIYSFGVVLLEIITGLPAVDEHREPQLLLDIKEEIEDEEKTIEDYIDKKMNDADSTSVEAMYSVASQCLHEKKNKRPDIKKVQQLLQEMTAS
# Assay: Biochemical Assay: The biochemical assay is in a AlphaScreen format. The kinase reaction is based on the IRAK-4 phosphorylation of a biotin labeled peptide. The phosphopeptide is incubated with anti-phosphothreonine antibody as well as streptavidin- and protein A-coated beads. Binding of the protein-A coated beads to the antibody and the streptavidin beads to the peptide, leads to an energy transfer from one bead to the other, ultimately producing a luminescent/fluorescent signal.Generally, the kinase reaction is carried out at 1 nM IRAK4, 1.6 μM peptide, 1 mM ATP in reaction buffer 50 mM Hepes, 60 mM NaCl, 5 mM MgCl2, 0.25 mM MnCl2, 2 mM DTT, 0.01% BSA, 0.01% Tween-20) for 3.5 h at RT.
row,IC50 [nM],SMILES
1,< 100,CCC[C@H](N)c1cccc(-c2cc(N3CCOCC3)c3cnn(-c4cccc(CO)n4)c3c2)n1
2,< 100,CCc1cccc(-c2cc(-c3nnc(C)o3)c3cnn(-c4cccc(CO)n4)c3c2)n1
3,< 100,CCC[C@H](N)c1cccc(-c2cc(N3CCC3)c3cnn(-c4cccc(CO)n4)c3c2)n1

row,SMILES,IC50 [nM]
1,N#CCNC(=O)c1cc(N)cc(-c2ccc3cnn(-c4cccc(C(F)(F)F)n4)c3c2)c1,< 100
